Patent publication US8163793B2, “Proline derivatives” (Hoffman-La Roche Inc., priority 2009, dated 2012)
pIC50: −log10 of the molar value. Counter-ions that a name gives are not always drawn.

What was measured:
Cat L = Cat L (UniProt P07711); test: Cathepsin enzyme inhibition assay (fluorogenic peptide substrate Z-Val-Val-Arg-AMC), Cathepsin L; assay type: biochemical, human and mouse; details: for pIC50: enzyme 1 nM, substrate 20 μM, pH 6.5, read-out: CatL IC50
How it was run: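 Cathepsin L at 1 nM was mixed with compound, then started with 20 μM Z-Val-Val-Arg-AMC in pH 6.5 potassium phosphate with EDTA, Triton X-100 and 5 mM DTT. AMC fluorescence (ex 360/em 465 nm) was followed over 20 min. IC50 is given in μM.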

Cathepsin S = Cathepsin S (UniProt P25774); test: Cathepsin enzyme inhibition assay (fluorogenic peptide substrate Z-Val-Val-Arg-AMC), Cathepsin S; assay type: biochemical, human and mouse; details: enzyme 1 nM, substrate 20 μM, pH 6.5; read-out: CatS IC50
How it was run: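 Human or mouse cathepsin S (1 nM) was run in 100 mM potassium phosphate pH 6.5 with 5 mM EDTA, 0.001% Triton X-100 and 5 mM DTT. The rise in AMC fluorescence from cleavage was measured, and IC50 values were calculated by standard methods and expressed in μM.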

| pIC50 (Cat L) | pIC50 (Cathepsin S) | CatL, % @25 uM (Cat L; @25 uM compound) [% @25 uM] | Compound |
| --- | --- | --- | --- |
| ≤ 4.60 | 8.66 |  | N#CC1(NC(=O)[C@@H]2C[C@@H](S(=O)(=O)c3ccc(N4CCOC4=O)cc3C(F)(F)F)CN2)CC1 [Example 27, (2S,4R)-4-[4-(2-oxo-oxazolidin-3-yl)-2-trifluoromethyl-benzenesulfonyl]-pyrrolidine-2-carboxylic acid (1-cyano-cyclopropyl)-amide hydrochloride] |
| 4.85 | 9.40 |  | Cc1cc(N2C[C@H](S(=O)(=O)c3ccc(-c4ccnn4C)cc3C(F)(F)F)C[C@H]2C(=O)NC2(C#N)CC2)n(C2CCC2)n1 [Example 420, (2S,4R)—N-(1-cyanocyclopropyl)-1-(1-cyclobutyl-3-methyl-1H-pyrazol-5-yl)-4-(4-(1-methyl-1H-pyrazol-5-yl)-2-(trifluoromethyl)phenylsulfonyl)pyrrolidine-2-carboxamide] |
| ≤ 4.60 | 9.10 |  | CC(=O)N1C[C@H](S(=O)(=O)c2ccc(-n3ccnc3)cc2C(F)(F)F)C[C@H]1C(=O)NC1(C#N)CC1 [Example 112, (2S,4R)-1-Acetyl-4-(4-imidazol-1-yl-2-trifluoromethyl-benzenesulfonyl)-pyrrolidine-2-carboxylic acid (1-cyano-cyclopropyl)-amide] |
| 4.88 | 8.78 |  | Cc1cc(N2C[C@H](S(=O)(=O)c3ccccc3C(F)(F)F)C[C@H]2C(=O)NC2(C#N)CC2)n(CCc2ccccc2)n1 [Example 337, (2S,4R)-1-(5-Methyl-2-phenethyl-2H-pyrazol-3-yl)-4-(2-trifluoromethyl-benzenesulfonyl)-pyrrolidine-2-carboxylic acid (1-cyano-cyclopropyl)-amide] |
| 5.81 | 8.62 |  | Cc1cc(N2C[C@H](S(=O)(=O)c3ccccc3Cl)C[C@H]2C(=O)NC2(C#N)CC2)n(CCCc2ccccc2)n1 [Example 474, (2S,4R)-4-(2-Chloro-benzenesulfonyl)-1-[5-methyl-2-(3-phenyl-propyl)-2H-pyrazol-3-yl]-pyrrolidine-2-carboxylic acid (1-cyano-cyclopropyl)-amide] |
| 4.89 | 9.30 |  | N#CCNC(=O)[C@@H]1C[C@@H](S(=O)(=O)c2ccccc2Cl)CN1C(=O)C1CCCCC1 [Example 60, (2S,4R)-4-(2-Chloro-benzenesulfonyl)-1-cyclohexanecarbonyl-pyrrolidine-2-carboxylic acid cyanomethyl-amide] |
| ≤ 4.60 | 7.11 |  | C=CCN[C@@H](C(=O)N1C[C@H](S(=O)(=O)c2ccccc2OCC=C)C[C@H]1C(=O)NC1(C#N)CC1)c1ccc(Cl)cc1 [Example 455, (2S,4R)-1-[(R)-2-Allylamino-2-(4-chloro-phenyl)-acetyl]-4-(2-allyloxy-benzenesulfonyl)-pyrrolidine-2-carboxylic acid (1-cyano-cyclopropyl)-amide] |
| 7.31 | 10.10 |  | COCCOc1ccc(S(=O)(=O)[C@@H]2C[C@@H](C(=O)NC3(C#N)CC3)N(C(=O)C3(c4ccc(Cl)cc4)CC3)C2)c(Cl)c1 [Example 342, (2S,4R)-4-[2-Chloro-4-(2-methoxy-ethoxy)-benzenesulfonyl]-1-[1-(4-chloro-phenyl)-cyclopropanecarbonyl]-pyrrolidine-2-carboxylic acid (1-cyano-cyclopropyl)-amide] |
| 5.17 | 8.06 |  | CN1CCC(C(=O)N2C[C@H](S(=O)(=O)c3ccccc3Cl)C[C@H]2C(=O)NC2(C#N)CC2)CC1 [Example 82, (2S,4R)-4-(2-Chloro-benzenesulfonyl)-1-(1-methyl-piperidine-4-carbonyl)-pyrrolidine-2-carboxylic acid (1-cyano-cyclopropyl)-amide] |
| ≤ 4.60 | 9.10 |  | CC(C)(C)OC(=O)N1C[C@H](S(=O)(=O)c2ccc(OCC(F)(F)F)cc2C(F)(F)F)C[C@H]1C(=O)NC1(C#N)CC1 [Example 208, (2S,4R)-2-(1-Cyano-cyclopropylcarbamoyl)-4-[4-(2,2,2-trifluoro-ethoxy)-2-trifluoromethyl-benzenesulfonyl]-pyrrolidine-1-carboxylic acid tert-butyl ester] |
| 5.38 | 9.80 |  | CN(C)c1ccc(S(=O)(=O)[C@@H]2C[C@@H](C(=O)NC3(C#N)CC3)N(C(=O)C3(C(F)(F)F)CC3)C2)c(Cl)c1 [Example 292, (2S,4R)-4-(2-Chloro-4-dimethylamino-benzenesulfonyl)-1-(1-trifluoromethyl-cyclopropanecarbonyl)-pyrrolidine-2-carboxylic acid (1-cyano-cyclopropyl)-amide] |
| 5.86 | 8.96 |  | Cc1cc(N2C[C@H](S(=O)(=O)c3ccccc3Cl)C[C@H]2C(=O)NC2(C#N)CC2)n(-c2ccc(C(F)(F)F)cc2)n1 [Example 253, (2S,4R)-4-(2-Chloro-benzenesulfonyl)-1-[5-methyl-2-(4-trifluoromethyl-phenyl)-2H-pyrazol-3-yl]-pyrrolidine-2-carboxylic acid (1-cyano-cyclopropyl)-amide] |
| 5.57 | 8.76 |  | Cc1cc(N2C[C@H](S(=O)(=O)c3ccccc3Cl)C[C@H]2C(=O)NC2(C#N)CC2)n(Cc2ccccc2)n1 [Example 379, (2S,4R)-1-(2-Benzyl-5-methyl-2H-pyrazol-3-yl)-4-(2-chloro-benzenesulfonyl)-pyrrolidine-2-carboxylic acid (1-cyano-cyclopropyl)-amide] |
| 7.67 | 9.56 |  | N#CC1(NC(=O)[C@@H]2C[C@@H](S(=O)(=O)c3ccccc3Cl)CN2C(=O)C2(c3ccc(Cl)c(F)c3)CC2)CC1 [Example 446, (2S,4R)-4-(2-Chloro-benzenesulfonyl)-1-[1-(4-chloro-3-fluoro-phenyl)-cyclopropanecarbonyl]-pyrrolidine-2-carboxylic acid (1-cyano-cyclopropyl)-amide] |
| 5.50 | 9.52 |  | N#CC1(NC(=O)[C@@H]2C[C@@H](S(=O)(=O)c3ccc(N4CCCCC4)cc3Cl)CN2C(=O)C2(C(F)(F)F)CC2)CC1 [Example 135, (2S,4R)-4-(2-Chloro-4-piperidin-1-yl-benzenesulfonyl)-1-(1-trifluoromethyl-cyclopropanecarbonyl)-pyrrolidine-2-carboxylic acid (1-cyano-cyclopropyl)-amide] |
| 4.33 | 7.61 |  | N#CC1(NC(=O)[C@H]2C[C@H](S(=O)(=O)c3ccc(OCC(F)(F)F)cc3Cl)CN2C(=O)C2(C(F)(F)F)CC2)CC1 [Example 280, (2R,4S)-4-[2-Chloro-4-(2,2,2-trifluoro-ethoxy)-benzenesulfonyl]-1-(1-trifluoromethyl-cyclopropanecarbonyl)-pyrrolidine-2-carboxylic acid (1-cyano-cyclopropyl)-amide] |
| 4.40 | 6.02 |  | CN1C[C@H](S(=O)(=O)c2ccccc2Cl)C[C@H]1C(=O)N(C)C1(C#N)CC1 [Example 94, (2S,4R)-4-(2-Chloro-benzenesulfonyl)-1-methyl-pyrrolidine-2-carboxylic acid (1-cyano-cyclopropyl)-methyl-amide Formiate] |
| ≤ 4.60 | 5.83 |  | N#CC1(NC(=O)[C@@H]2C[C@@H](S(=O)(=O)CC3CC3)CN2C(=O)C2(C(F)(F)F)CC2)CC1 [Example 423, (2S,4R)-4-Cyclopropylmethanesulfonyl-1-(1-trifluoromethyl-cyclopropanecarbonyl)-pyrrolidine-2-carboxylic acid (1-cyano-cyclopropyl)-amide] |
| 7.55 | 10.00 |  | N#CC1(NC(=O)[C@@H]2C[C@@H](S(=O)(=O)c3ccc(OCC(F)(F)F)cc3Cl)CN2C(=O)C2(c3ccc(Br)cc3)OCCO2)CC1 [Example 346, (2S,4R)-1-[2-(4-Bromo-phenyl)-[1,3]dioxolane-2-carbonyl]-4-[2-chloro-4-(2,2,2-trifluoro-ethoxy)-benzenesulfonyl]-pyrrolidine-2-carboxylic acid (1-cyano-cyclopropyl)-amide] |
| 5.44 | 8.51 |  | Cc1cc(N2C[C@H](S(=O)(=O)c3ccccc3Cl)C[C@H]2C(=O)NC2(C#N)CC2)n(C2CCOCC2)n1 [Example 478, (2S,4R)-4-(2-Chloro-benzenesulfonyl)-1-[5-methyl-2-(tetrahydro-pyran-4-yl)-2H-pyrazol-3-yl]-pyrrolidine-2-carboxylic acid (1-cyano-cyclopropyl)-amide] |
|  | 6.08 | 97 | Cc1cc(N2C[C@H](S(=O)(=O)CC3CC3)C[C@H]2C(=O)NC2(C#N)CC2)n(-c2ccc(C(F)(F)F)cc2)n1 [Example 469, (2S,4R)-4-Cyclopropylmethanesulfonyl-1-[5-methyl-2-(4-trifluoromethyl-phenyl)-2H-pyrazol-3-yl]-pyrrolidine-2-carboxylic acid (1-cyano-cyclopropyl)-amide] |
| 5.36 | 7.15 |  | N#CC1(NC(=O)[C@@H]2C[C@@H](S(=O)(=O)c3ccccc3Cl)CN2C(=O)C2(Oc3ccc(Cl)cc3)CC2)CC1 [Example 473, (2S,4R)-4-(2-Chloro-benzenesulfonyl)-1-[1-(4-chloro-phenoxy)-cyclopropanecarbonyl]-pyrrolidine-2-carboxylic acid (1-cyano-cyclopropyl)-amide] |
| 4.89 | 9.68 |  | Cc1cc(N2C[C@H](S(=O)(=O)c3ccccc3C(F)(F)F)C[C@H]2C(=O)NC2(C#N)CC2)n(-c2ccc(C(F)(F)F)cc2)n1 [Example 232, (2S,4R)-1-[5-Methyl-2-(4-trifluoromethyl-phenyl)-2H-pyrazol-3-yl]-4-(2-trifluoromethyl-benzenesulfonyl)-pyrrolidine-2-carboxylic acid (1-cyano-cyclopropyl)-amide] |
